Results on 16 compounds are retold here after US20020049223A1, “Quinoline and naphthyridine carboxylic acid antibacterials” (priority 1999, published 2002).

Assay in all cases: Assay B: in vitro antibacterial activity, broth microdilution MIC (NCCLS)
What all share (type): cell-based
A general note: In broth dilution the organism is exposed to a series of concentrations in liquid medium.

In experiment [1] the test system is Streptococcus pneumoniae ATCC 6303. Conditions: Table 2, Assay B, Mueller Hinton broth with 3% lysed horse blood, 20 to 24 hr; code F = Streptococcus pneumoniae ATCC 6303; unit assumed. The procedure, abridged: (§1)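 NCCLS broth microdilution: cation-adjusted MH broth, ~5×10^5 CFU/mL, 35° C, 16–20 hr, visual endpoint of complete growth inhibition. Fastidious strains incubated 20–24 hr, S. pneumoniae with 3% lysed horse blood, H. influenzae with yeast extract, hematin and NAD.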

Experiment [2] deals with Enterococcus faecalis PIU 1967. Conditions: Table 2, Assay B, cation-adjusted Mueller Hinton broth, 35° C., 16 to 20 hr; code B = Enterococcus faecalis PIU 1967; unit assumed. Put shortly: as §1
A further experiment relates to Escherichia coli JUHL. Conditions: Table 2, Assay B, cation-adjusted Mueller Hinton broth, 35° C., 16 to 20 hr; code D = Escherichia coli JUHL; unit assumed. Put shortly:
as §1

Experiment [3] has as its system Staphylococcus aureus ATCC 6538P. Conditions: Table 2, Assay B, cation-adjusted Mueller Hinton broth, 35° C., 16 to 20 hr; code A = Staphylococcus aureus ATCC 6538P; unit assumed. Put shortly: as §1
The subject of experiment [4] is Haemophilus influenzae DILL AMP R. Conditions: Table 2, Assay B, Mueller Hinton broth with yeast extract, hematin and NAD, 20 to 24 hr; code E = Haemophilus influenzae DILL AMP R; unit assumed. Put shortly:
as §1

For the compound `O=C(O)c1cn(C2CC2)c2cc(-c3cc4c(s3)CCCC4O)c(F)cc2c1=O` (centres unmarked) [Example 296, 1-cyclopropyl-6-fluoro-7-(4-hydroxy-4,5,6,7-tetrahydro-1-benzothien-2-yl)-4-oxo-1,4-dihydroquinoline-3-carboxylic acid], the Antibacterial Activity (MIC's), F in experiment [1] was found to be 0.5 µg/mL. In addition, the Antibacterial Activity (MIC's), B in experiment [2] was found to be 0.25 µg/mL. Further, the Antibacterial Activity (MIC's), D with Escherichia coli JUHL amounted to 0.5 µg/mL. The Antibacterial Activity (MIC's), A in experiment [3] is ≤ 0.004 µg/mL. The same compound had an Antibacterial Activity (MIC's), E in experiment [4] of 0.06 µg/mL.

The compound `COc1c(-c2cc3c(s2)C(O)CCC3)c(F)cc2c(=O)c(C(=O)O)cn(C3CC3)c12` (centres unmarked) [Example 299, 1-cyclopropyl-6-fluoro-7-(7-hydroxy-4,5,6,7-tetrahydro-1-benzothien-2-yl)-8-methoxy-4-oxo-1,4-dihydroquinoline-3-carboxylic acid] returned an Antibacterial Activity (MIC's), F in experiment [1] of 0.06 µg/mL. This compound registered an Antibacterial Activity (MIC's), B in experiment [2] of 0.06 µg/mL. This compound also registered an Antibacterial Activity (MIC's), D in the experiment on Escherichia coli JUHL of 0.125 µg/mL. The Antibacterial Activity (MIC's), A in experiment [3] is ≤ 0.004 µg/mL. This compound came in with an Antibacterial Activity (MIC's), E in experiment [4] of 0.03 µg/mL.

Consider `Cl.NC1CCCc2sc(-c3cc4c(cc3F)c(=O)c(C(=O)O)cn4C3CC3)cc21` (centres unmarked) [Example 307, 7-(4-amino-4,5,6,7-tetrahydro-1-benzothien-2-yl)-1-cyclopropyl-6-fluoro-4-oxo-1,4-dihydroquinoline-3-carboxylic acid hydrochloride], for which the Antibacterial Activity (MIC's), F in experiment [1] came out at 0.008 µg/mL. Also, the Antibacterial Activity (MIC's), B in experiment [2] amounted to 0.03 µg/mL. Also, the Antibacterial Activity (MIC's), D with Escherichia coli JUHL came to 0.03 µg/mL. In addition, the Antibacterial Activity (MIC's), A in experiment [3] worked out at 0.008 µg/mL. Besides, the Antibacterial Activity (MIC's), E in experiment [4] came to 0.015 µg/mL.

In experiment [1], `Cl.NC1CCCc2sc(-c3c(F)cc4c(=O)c(C(=O)O)cn(C5CC5)c4c3F)cc21` (centres unmarked) [Example 308, 7-(4-amino-4,5,6,7-tetrahydro-1-benzothien-2-yl)-1-cyclopropyl-6,8-difluoro-4-oxo-1,4-dihydroquinoline-3-carboxylic acid hydrochloride] registered an Antibacterial Activity (MIC's), F of 0.015 µg/mL. In experiment [2], this compound gave an Antibacterial Activity (MIC's), B of 0.03 µg/mL. Besides, the Antibacterial Activity (MIC's), D in the experiment on Escherichia coli JUHL amounted to 0.03 µg/mL. This compound had an Antibacterial Activity (MIC's), A in experiment [3] of 0.008 µg/mL. In addition, the Antibacterial Activity (MIC's), E in experiment [4] stood at 0.015 µg/mL.

As to `Cl.NC1CCCc2cc(-c3c(F)cc4c(=O)c(C(=O)O)cn(C5CC5)c4c3F)sc21` (centres unmarked) [Example 309, 7-(7-amino-4,5,6,7-tetrahydro-1-benzothien-2-yl)-1-cyclopropyl-6,8-difluoro-4-oxo-1,4-dihydroquinoline-3-carboxylic acid hydrochloride], the Antibacterial Activity (MIC's), F in experiment [1] turned out to be 0.06 µg/mL. In addition, in experiment [2], the Antibacterial Activity (MIC's), B came out at 0.06 µg/mL. This compound also registered an Antibacterial Activity (MIC's), D in the experiment on Escherichia coli JUHL of 0.03 µg/mL. Moreover, the Antibacterial Activity (MIC's), A in experiment [3] is 0.015 µg/mL. In experiment [4], this compound had an Antibacterial Activity (MIC's), E of 0.015 µg/mL.

Compound `Cl.NC1CCCc2cc(-c3cc4c(cc3F)c(=O)c(C(=O)O)cn4C3CC3)sc21` (centres unmarked) [Example 310, 7-(7-amino-4,5,6,7-tetrahydro-1-benzothien-2-yl)-1-cyclopropyl-6-fluoro-4-oxo-1,4-dihydroquinoline-3-carboxylic acid hydrochloride] showed an Antibacterial Activity (MIC's), F in experiment [1] of 0.008 µg/mL. In experiment [2], this compound returned an Antibacterial Activity (MIC's), B of 0.015 µg/mL. Also, in the experiment with Escherichia coli JUHL, the Antibacterial Activity (MIC's), D worked out at 0.015 µg/mL. In experiment [3], this compound yielded an Antibacterial Activity (MIC's), A of 0.008 µg/mL. Besides, the Antibacterial Activity (MIC's), E in experiment [4] was 0.015 µg/mL.

In the case of `O=C(O)c1cn(C2CC2)c2c(Cl)c(-c3cc4c(s3)C(O)CCC4)ccc2c1=O` (centres unmarked) [Example 315, 8-chloro-1-cyclopropyl-7-(7-hydroxy-4,5,6,7-tetrahydro-1-benzothien-2-yl)-4-oxo-1,4-dihydroquinoline-3-carboxylic acid], the Antibacterial Activity (MIC's), F in experiment [1] came out at 0.125 µg/mL. The Antibacterial Activity (MIC's), B in experiment [2] is 0.06 µg/mL. In the experiment on Escherichia coli JUHL, this compound yielded an Antibacterial Activity (MIC's), D of 0.125 µg/mL. Further, the Antibacterial Activity (MIC's), A in experiment [3] was found to be 0.008 µg/mL. In experiment [4], this compound registered an Antibacterial Activity (MIC's), E of 0.008 µg/mL.

In experiment [1], `Cc1c(-c2cc3c(s2)CCCC3O)c(F)cc2c(=O)c(C(=O)O)cn(C3CC3)c12` (centres unmarked) [Example 316, 1-cyclopropyl-6-fluoro-7-(4-hydroxy-4,5,6,7-tetrahydro-1-benzothien-2-yl)-8-methyl-4-oxo-1,4-dihydroquinoline-3-carboxylic acid] yielded an Antibacterial Activity (MIC's), F of 0.03 µg/mL. The same compound came in with an Antibacterial Activity (MIC's), B in experiment [2] of 0.06 µg/mL. The compound also yielded an Antibacterial Activity (MIC's), D with Escherichia coli JUHL of 0.06 µg/mL. Besides, the Antibacterial Activity (MIC's), A in experiment [3] was ≤ 0.004 µg/mL. The Antibacterial Activity (MIC's), E in experiment [4] is ≤ 0.004 µg/mL.

In experiment [1], `CNC1CCCc2sc(-c3c(F)cc4c(=O)c(C(=O)O)cn(C5CC5)c4c3C)cc21.Cl` (centres unmarked) [Example 317, 1-cyclopropyl-6-fluoro-8-methyl-7-(4-(methylamino)-4,5,6,7-tetrahydro-1-benzothien-2-yl)-4-oxo-1,4-dihydroquinoline-3-carboxylic acid hydrochloride] showed an Antibacterial Activity (MIC's), F of 0.03 µg/mL. In addition, in experiment [2], the Antibacterial Activity (MIC's), B was found to be 0.06 µg/mL. Besides, in the experiment on Escherichia coli JUHL, the Antibacterial Activity (MIC's), D was 0.06 µg/mL. Besides, the Antibacterial Activity (MIC's), A in experiment [3] was found to be 0.03 µg/mL. This compound also gave an Antibacterial Activity (MIC's), E in experiment [4] of 0.03 µg/mL.

The compound `Nc1c(F)c(-c2cc3c(s2)C(O)CCC3)c(F)c2c1c(=O)c(C(=O)O)cn2C1CC1` (centres unmarked) [Example 319, 5-amino-1-cyclopropyl-6,8-difluoro-7-(7-hydroxy-4,5,6,7-tetrahydro-1-benzothien-2-yl)-4-oxo-1,4-dihydroquinoline-3-carboxylic acid] came in with an Antibacterial Activity (MIC's), F in experiment [1] of 0.03 µg/mL. Further, the Antibacterial Activity (MIC's), B in experiment [2] was found to be 0.06 µg/mL. The compound further gave an Antibacterial Activity (MIC's), D in the experiment with Escherichia coli JUHL of 0.06 µg/mL. The Antibacterial Activity (MIC's), A in experiment [3] is ≤ 0.004 µg/mL. The compound further displayed an Antibacterial Activity (MIC's), E in experiment [4] of 0.015 µg/mL.

As to `Cc1c(-c2cc3c(s2)CCCC3N)c(F)cc2c(=O)c(C(=O)O)cn(C3CC3)c12.Cl` (centres unmarked) [Example 321, 7-(4-amino-4,5,6,7-tetrahydro-1-benzothien-2-yl)-1-cyclopropyl-6-fluoro-8-methyl-4-oxo-1,4-dihydroquinoline-3-carboxylic acid hydrochloride], the Antibacterial Activity (MIC's), F in experiment [1] was ≤ 0.004 µg/mL. Further, the Antibacterial Activity (MIC's), B in experiment [2] was determined as 0.015 µg/mL. The compound further had an Antibacterial Activity (MIC's), D with Escherichia coli JUHL of 0.015 µg/mL. In addition, in experiment [3], the Antibacterial Activity (MIC's), A was ≤ 0.004 µg/mL. Also, the Antibacterial Activity (MIC's), E in experiment [4] is ≤ 0.004 µg/mL.

`Cl.NC1CCCc2cc(-c3cc(F)c4c(=O)c(C(=O)O)cn(C5CC5)c4c3F)sc21` (centres unmarked) [Example 326, 7-(7-amino-4,5,6,7-tetrahydro-1-benzothien-2-yl)-1-cyclopropyl-5,8-difluoro-4-oxo-1,4-dihydroquinoline-3-carboxylic acid hydrochloride] registered an Antibacterial Activity (MIC's), F in experiment [1] of 0.125 µg/mL. The compound also had an Antibacterial Activity (MIC's), B in experiment [2] of 0.25 µg/mL. In the experiment on Escherichia coli JUHL, this compound had an Antibacterial Activity (MIC's), D of 0.125 µg/mL. For the same compound, the Antibacterial Activity (MIC's), A in experiment [3] is 0.125 µg/mL. Also, the Antibacterial Activity (MIC's), E in experiment [4] was 0.015 µg/mL.

In experiment [1], `Cl.NC1CCCc2sc(-c3ccc4c(=O)c(C(=O)O)cn(C5CC5)c4c3Cl)cc21` (centres unmarked) [Example 329, 7-(4-amino-4,5,6,7-tetrahydro-1-benzothien-2-yl)-8-chloro-1-cyclopropyl-4-oxo-1,4-dihydroquinoline-3-carboxylic acid hydrochloride] yielded an Antibacterial Activity (MIC's), F of 0.008 µg/mL. The Antibacterial Activity (MIC's), B in experiment [2] is 0.03 µg/mL. The compound further showed an Antibacterial Activity (MIC's), D in the experiment with Escherichia coli JUHL of 0.03 µg/mL. The Antibacterial Activity (MIC's), A in experiment [3] was ≤ 0.004 µg/mL. Besides, the Antibacterial Activity (MIC's), E in experiment [4] came to 0.008 µg/mL.

For `Cl.NC1CCCc2cc(-c3ccc4c(=O)c(C(=O)O)cn(C5CC5)c4c3Cl)sc21` (centres unmarked) [Example 330, 7-(7-amino-4,5,6,7-tetrahydro-1-benzothien-2-yl)-8-chloro-1-cyclopropyl-4-oxo-1,4-dihydroquinoline-3-carboxylic acid hydrochloride], the Antibacterial Activity (MIC's), F in experiment [1] was 0.03 µg/mL. The same compound showed an Antibacterial Activity (MIC's), B in experiment [2] of 0.06 µg/mL. The Antibacterial Activity (MIC's), D in the experiment on Escherichia coli JUHL amounted to 0.03 µg/mL. Further, in experiment [3], the Antibacterial Activity (MIC's), A turned out to be 0.015 µg/mL. In addition, the Antibacterial Activity (MIC's), E in experiment [4] came to 0.008 µg/mL.

In experiment [1], `CC1(C)CCc2cc(-c3cc4c(cc3F)c(=O)c(C(=O)O)cn4C3CC3)sc2C1O` (centres unmarked) [Example 342, 1-cyclopropyl-6-fluoro-7-(7-hydroxy-6,6-dimethyl-4,5,6,7-tetrahydro-1-benzothien-2-yl)-4-oxo-1,4-dihydroquinoline-3-carboxylic acid] gave an Antibacterial Activity (MIC's), F of 0.125 µg/mL. In experiment [2], the Antibacterial Activity (MIC's), B stood at 0.25 µg/mL. Further, the Antibacterial Activity (MIC's), D in the experiment with Escherichia coli JUHL was 0.5 µg/mL. For the same compound, the Antibacterial Activity (MIC's), A in experiment [3] stood at 0.03 µg/mL. The compound also came in with an Antibacterial Activity (MIC's), E in experiment [4] of 0.25 µg/mL.

Take `CNC1CCCc2sc(-c3c(F)c(N)c4c(=O)c(C(=O)O)cn(C5CC5)c4c3F)cc21.Cl` (centres unmarked) [Example 346, 5-amino-1-cyclopropyl-6,8-difluoro-7-(4-(methylamino)-4,5,6,7-tetrahydro-1-benzothien-2-yl)-4-oxo-1,4-dihydroquinoline-3-carboxylic acid hydrochloride]: the Antibacterial Activity (MIC's), F in experiment [1] came out at 0.008 µg/mL. The same compound registered an Antibacterial Activity (MIC's), B in experiment [2] of 0.03 µg/mL. The compound also registered an Antibacterial Activity (MIC's), D in the experiment with Escherichia coli JUHL of 0.125 µg/mL. Moreover, the Antibacterial Activity (MIC's), A in experiment [3] was ≤ 0.004 µg/mL. In addition, in experiment [4], the Antibacterial Activity (MIC's), E came to 0.015 µg/mL.
